Source: patent US11858899B2, “Complexation of pirfenidone with polyphenolic calixarene or resorcin[4]arenes” (University of Cincinnati, priority 2021, dated 2024)
In brackets after ≈: the same amount, converted by molar mass. Entries after “also recorded” stand apart in the source; their conditions may differ. Read-outs that look alike come from different tables or passages of the source.

Legend:
[1] = test system: Staphylococcus aureus (G+ve) bacteria; assay: Zone of inhibition (ZI) paper disc test, antibacterial/antioxidant activity; type: cell-based; details: for Inference: radical scavenger: from ZI change with H2O2 / pyrogallol; for Zone of inhibition (ZI), 5 uL of (Compound + H2O2): premixed 0.01M compound + 0.88M H2O2, 1:1, decrease vs pure H2O2 = antioxidant; for Zone of inhibition (ZI), 5 uL of (Compound + Pyrogallol): premixed 0.01M compound + 1M Pyrogallol, 1:1, decrease vs pure pyrogallol = antioxidant; for Zone of inhibition (ZI), 5 uL of 0.01M Compound: pure compound on paper disc, zone width around disk; for Inference: Anti-bacterial potential: from ZI of pure compound
Protocol: (§1) Tests were conducted to check the antioxidant/antibacterial activity of macrocycle and host-guest compounds. 5 uL of 0.01M compound, 5 uL (premixed, 0.01M compound+1M Pyrogallol, 1:1) and 5 uL (premixed, 0.01M compound+0.88M H2O2, 1:1) were added on paper discs placed on plates. 5 uL of 1M pyrogallol, 5 uL of 0.88M H2O2 were used as control (oxidants). In the following tables, Decrease/Increase means wrt pure H2O2 or pyrogallol. […] Zone=mm of zone width around disk.

[2] = test system: klebsiella pneumoniae (G -ve) bacteria; assay: as above; type: cell-based; details: for Inference: radical scavenger: from ZI change with H2O2 / pyrogallol; for Zone of inhibition (ZI), 5 uL of (Compound + H2O2): premixed 0.01M compound + 0.88M H2O2, 1:1; for Zone of inhibition (ZI), 5 uL of (Compound + Pyrogallol): premixed 0.01M compound + 1M Pyrogallol, 1:1; for Zone of inhibition (ZI), 5 uL of 0.01M Compound: pure compound on paper disc;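 as to Inference: radical scavenger: smaller zone than oxidant alone means antioxidant and larger means oxidant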
Protocol: as §1, with “disk. Decrease/Increase wrt pure H2O2 or pyrogallol.” for “disk.”

[3] = test system: Pseudomonas aeruginosa (G-ve) bacteria; assay: as above; type: cell-based; details: for Inference: radical scavenger: from ZI change with H2O2 / pyrogallol; for Zone of inhibition (ZI), 5 uL of (Compound + H2O2): premixed 0.01M compound + 0.88M H2O2, 1:1; for Zone of inhibition (ZI), 5 uL of (Compound + Pyrogallol): premixed 0.01M compound + 1M Pyrogallol, 1:1; for Zone of inhibition (ZI), 5 uL of 0.01M Compound: pure compound on paper disc;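 as to Inference: radical scavenger: smaller zone than oxidant alone means antioxidant and larger means oxidant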
Protocol: as §1, with “disk. Decrease/Increase wrt pure H2O2 or pyrogallol.” for “disk.”

E. Coli (G-ve) bacteria = assay: as above; type: cell-based; details: for Inference: radical scavenger: from ZI change with H2O2 / pyrogallol; for Zone of inhibition (ZI), 5 uL of (Compound + H2O2): premixed 0.01M compound + 0.88M H2O2, 1:1; for Zone of inhibition (ZI), 5 uL of (Compound + Pyrogallol): premixed 0.01M compound + 1M Pyrogallol, 1:1; for Zone of inhibition (ZI), 5 uL of 0.01M Compound: pure compound on paper disc;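 as to Inference: radical scavenger: smaller zone than oxidant alone means antioxidant and larger means oxidant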
Protocol: as §1, with “disk. Decrease/Increase wrt pure H2O2 or pyrogallol.” for “disk.”

P. aeruginosa (BAMF) = assay: Broth serial dilution MIC / growth inhibition in 96-well plate; type: cell-based, Pseudomonas aeruginosa; details: for GI (growth inhibition): at the MIC concentration; for MIC: test range 128-2 ug/mL, LB medium
Protocol: (§2) 3 mg/ml stock solutions of PFD, RsC1, RsC1-PFD (1:1 complex), RsC4, and RsC4-PFD (1:1 complex) were prepared in DMSO (bcoz host soluble in DMSO solution). From the stock, a working solution 4× (highest conc. for each compound in plate) was prepared in LB media. 50 uL of LB media was first added in each well (96 well plate). Then a 4× solution of the respective compound was added to the first row (A4-A12) except A1-A3 (Positive control/bacterial innoculum). Then, the 4× was serially diluted up to well G for all 3 compounds. (A-G). Then, a 50 uL aliquot of the 100-fold diluted bacterial inoculum was added in each test well. Individual test concentrations (in triplicate wells in a 96-well plate) for the given compounds were achieved by serial dilution by using LB medium. Total volume in each well is 100 uL. The final-test concentration range for the individual test compounds for C. acnes, S. aureus and P. aeruginosa are as follows: PFD, RsC1, RsC4, RsC1-PFD complex and RsC4-PFD complex (128-2 ug/mL).

S. aureus (MU50) = assay: as above; type: cell-based, Staphylococcus aureus; details: for GI (growth inhibition): at the MIC concentration; for MIC: test range 128-2 ug/mL, LB medium
Protocol: as §2

C. acnes = assay: as above; type: cell-based, Cutibacterium acnes; details: for GI (growth inhibition): at the MIC concentration; for MIC: test range 128-2 ug/mL, LB medium
Protocol: 3 mg/ml stock solutions of RsC1, PFD and RsC1-PFD were prepared in DMSO (bcoz host soluble in DMSO solution). From the stock, a working solution 4× (highest conc. for each compound in plate) was prepared in LB media. 50 uL of LB media were first added in each well (96 well plate). Then a 4× solution of each respective compound was added to the first row (A4-A12) except A1-A3 (Positive control/bacterial innoculum). Then the 4× was serially diluted up to well G for all 3 compounds. (A-G). Then, a 50 uL aliquot of the 100-fold diluted bacterial inoculum was added in each test well. Individual test concentrations (in triplicate wells in a 96-well plate) for the given compounds were achieved by serial dilution by using LB medium. Total volume in each well was 100 uL. The final-test concentration range for the individual test compounds for C. acne were as follows: Macrocycle, PFD and RsC1-PFD complex (128-2 ug/mL). The results are shown in FIG. 10, which is a bar plot of absorbance (at 600 nm) at various test compound concentrations, showing the percent inhibition of pathogen growth in the presence of decreasing concentrations of the test compounds using a twofold dilution series.
as §2, with “RsC4-PFD” for “RsC1, RsC1-PFD”, “complex),” for “complex), RsC4,”, “RsC4” for “RsC4-PFD (1:1 complex)”, “acne” for “acnes, S. aureus and P. aeruginosa are”, “Macrocycle, PFD” for “PFD, RsC1, RsC4, RsC1-PFD complex”
as §2

| SMILES | Inference: radical scavenger [1] | Zone of inhibition (ZI), 5 uL of (Compound + H2O2) [1] | Zone of inhibition (ZI), 5 uL of (Compound + Pyrogallol) [1] | Zone of inhibition (ZI), 5 uL of 0.01M Compound [1] | Inference: radical scavenger [2] | Zone of inhibition (ZI), 5 uL of (Compound + H2O2) [2] | Zone of inhibition (ZI), 5 uL of (Compound + Pyrogallol) [2] | Zone of inhibition (ZI), 5 uL of 0.01M Compound [2] | Inference: radical scavenger [3] | Zone of inhibition (ZI), 5 uL of (Compound + H2O2) [3] | Zone of inhibition (ZI), 5 uL of (Compound + Pyrogallol) [3] | Zone of inhibition (ZI), 5 uL of 0.01M Compound [3] | Inference: radical scavenger (E. Coli (G-ve) bacteria) | Zone of inhibition (ZI), 5 uL of (Compound + H2O2) (E. Coli (G-ve) bacteria) | Zone of inhibition (ZI), 5 uL of (Compound + Pyrogallol) (E. Coli (G-ve) bacteria) | Zone of inhibition (ZI), 5 uL of 0.01M Compound (E. Coli (G-ve) bacteria) | GI (growth inhibition) (P. aeruginosa (BAMF)) | GI (growth inhibition) (S. aureus (MU50)) | GI (growth inhibition) (C. acnes) | also measured |
| --- | --- | --- | --- | --- | --- | --- | --- | --- | --- | --- | --- | --- | --- | --- | --- | --- | --- | --- | --- | --- |
| OO [H2O2] |  |  |  |  |  |  |  |  |  |  |  |  |  |  |  |  |  |  |  | Zone of inhibition (ZI), 5 uL of 0.88M H2O2 ([1]; oxidant control alone): (4.6 mm); Zone of inhibition (ZI), 5 uL of 0.88M H2O2 ([2]; oxidant control alone): ZI (3 mm; Zone of inhibition (ZI), 5 uL of 0.88M H2O2 ([3]; oxidant control alone): ZI (2.7 mm; Zone of inhibition (ZI), 5 uL of 0.88M H2O2 (E. Coli (G-ve) bacteria; oxidant control alone): ZI (2.9 mm |
| CCCCCCC1c2cc(c(O)c(O)c2O)C(CCCCCC)c2cc(c(O)c(O)c2O)C(CCCCCC)c2cc(c(O)c(O)c2O)C(CCCCCC)c2cc1c(O)c(O)c2O (stereo not shown) [P6] | Low radical | (3.8 mm) | (2 mm) | No ZI | Moderate | (2 mm) | No ZI | No ZI | Low radical | (2.2 mm) | pyrogallol (1.2 mm | No ZI | Moderate | (1.7 mm) | No ZI | No ZI |  |  |  |  |
| CC1c2cc(c(O)cc2O)C(C)c2cc(c(O)cc2O)C(C)c2cc(c(O)cc2O)C(C)c2cc1c(O)cc2O (stereo not shown) [RsC1, C-methylresorcin[4]arene] | potential/Low | (4.2 mm) | (2.5 mm) | (1.2 mm) | Moderate | (2.4 mm) | No ZI | No ZI |  | (2.1 mm) | pyrogallol (1.2 mm | No ZI | Moderate | (1.9 mm) | No ZI | No ZI | 47% | 98% | 96% | MIC (P. aeruginosa (BAMF)): 64 µg/mL (≈ 118 µM); MIC (S. aureus (MU50)): 16 µg/mL (≈ 29.4 µM); Inference: Anti-bacterial potential ([1]; listed as R1): slight anti-bacterial activity; percent inhibition of pathogen growth (C. acnes; at 16 μg/mL, absorbance at 600 nm (FIG. 10)): 35%; MIC (C. acnes): 64 µg/mL (≈ 118 µM); Inference: radical scavenger ([3]; listed as R1): low antioxidant activity; also recorded: Low radical |
| Oc1cccc(O)c1O [pyrogallol, Pyrogallol] |  |  |  |  |  |  |  |  |  |  |  |  |  |  |  |  |  |  |  | Zone of inhibition (ZI), 5 uL of 1M pyrogallol ([1]; oxidant control alone): (3.3 mm); Zone of inhibition (ZI), 5 uL of 1M pyrogallol ([2]; oxidant control alone): ZI (0.9 mm; Zone of inhibition (ZI), 5 uL of 1M pyrogallol ([3]; oxidant control alone): ZI (1.1 mm; Zone of inhibition (ZI), 5 uL of 1M pyrogallol (E. Coli (G-ve) bacteria; oxidant control alone): ZI (0.9 mm |
| CCCCC1c2cc(c(O)cc2O)C(CCCC)c2cc(c(O)cc2O)C(CCCC)c2cc(c(O)cc2O)C(CCCC)c2cc1c(O)cc2O (stereo not shown) [RsC4, C-butylresorcin[4]arene] | Low radical | (3.6 mm) | (2.3 mm) | No ZI | High OH | No ZI | No ZI | No ZI | Low radical | (2.1 mm) | (1.4 mm) | No ZI | Moderate | (1.7 mm) | No ZI | No ZI | 56% | 52% | 98% | MIC (P. aeruginosa (BAMF)): 64 µg/mL (≈ 89.8 µM); MIC (S. aureus (MU50)): 128 µg/mL (≈ 180 µM); Inference: Anti-bacterial potential [1]: none; MIC (C. acnes): 128 µg/mL (≈ 180 µM) |
| Cc1ccc(=O)n(-c2ccccc2)c1 [PFD, 5-methyl-1-phenylpyridin-2-one] | low to high free radical scavenging effect; also recorded: Moderate | slightly (3.8 mm | No ZI | No ZI | Moderate | (2.2 mm) | No ZI | No ZI | no free radical scavenging effect | (2.7 mm) | pyrogallol (1.2 mm | No ZI | Moderate OH | (1.7 mm) | No ZI | No ZI | 35% | 45% | 98% | MIC (P. aeruginosa (BAMF); Pseudomonas aeruginosa, read-out: MIC): 128 µg/mL (≈ 691 µM); MIC (S. aureus (MU50); Staphylococcus aureus, read-out: MIC): 128 µg/mL (≈ 691 µM); MIC (C. acnes; Cutibacterium acnes, read-out: MIC): 128 µg/mL (≈ 691 µM) |
| OCCN1CCN(Cc2ccc(O)c3ncccc23)CC1 [VK] | Low radical | (3.7 mm) | (2.3 mm) | No ZI | Moderate | (2.3 mm) | No ZI | No ZI | Moderate | (2.2 mm) | (0.7 mm) | No ZI | High radical | No ZI | No ZI | No ZI |  |  |  |  |
